{
  "source": "BindingDB's records for patent US20250368667",
  "about": "(Shanghai Qilu Pharmaceutical Research and Development Centre, 2025)",
  "molecular_target": "T1, Ubiquitin carboxyl-terminal hydrolase 1 (Homo sapiens, UniProt O94782)",
  "T1 sequence (O94782 whole entry)": "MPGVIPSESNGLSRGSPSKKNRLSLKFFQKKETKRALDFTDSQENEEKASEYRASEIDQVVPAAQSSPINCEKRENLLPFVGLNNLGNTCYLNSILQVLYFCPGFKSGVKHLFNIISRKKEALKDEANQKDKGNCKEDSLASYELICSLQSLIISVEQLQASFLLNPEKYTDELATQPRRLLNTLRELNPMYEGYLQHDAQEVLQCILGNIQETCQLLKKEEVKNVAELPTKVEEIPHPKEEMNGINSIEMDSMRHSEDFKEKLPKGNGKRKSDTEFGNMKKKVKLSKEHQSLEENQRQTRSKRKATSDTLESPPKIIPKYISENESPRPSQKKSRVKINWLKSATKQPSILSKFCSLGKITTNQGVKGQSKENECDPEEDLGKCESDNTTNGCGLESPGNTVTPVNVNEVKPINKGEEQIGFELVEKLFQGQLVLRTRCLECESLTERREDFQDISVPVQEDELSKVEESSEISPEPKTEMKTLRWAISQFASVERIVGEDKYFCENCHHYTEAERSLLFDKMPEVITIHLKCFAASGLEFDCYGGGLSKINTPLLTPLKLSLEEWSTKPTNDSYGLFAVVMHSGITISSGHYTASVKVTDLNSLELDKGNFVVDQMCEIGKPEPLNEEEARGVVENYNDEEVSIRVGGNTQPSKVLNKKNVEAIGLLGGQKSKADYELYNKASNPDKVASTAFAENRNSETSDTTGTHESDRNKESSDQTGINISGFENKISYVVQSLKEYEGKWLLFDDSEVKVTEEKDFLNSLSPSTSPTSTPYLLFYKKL",
  "assay": "Experimental Method of USP1 Enzyme Activity",
  "text": "USPli compounds were screened by USP1 enzyme activity detection experiment.1.1 Experimental materials: recombinant human His6-USP1/His6-UAF1 composite protein.",
  "data": [
    {"smiles": "COc1cnn(C2CC2)c1-c1ncc2c3ccncc3n(Cc3ccc(-c4nc(C(F)(F)F)cn4C)cc3)c2n1", "note": "[US20250368667, Compound 103]", "values": [
      {"measurement": "IC50", "result": 12.3, "unit": "nM"}
    ]},
    {"smiles": "COc1ncnc(C2CC2)c1-c1ncc2c3ccc(C(C)C)nc3n(Cc3ccc4c(c3)CCCn3cc(C(F)(F)F)nc3-4)c2n1", "note": "[US20250368667, Compound 105]", "values": [
      {"measurement": "IC50", "result": 5.17, "unit": "nM"}
    ]},
    {"smiles": "COc1ncnc(C2CC2)c1-c1ncc2c3ccc(=O)[nH]c3n(Cc3ccc4c(c3)CCCn3cc(C(F)(F)F)nc3-4)c2n1", "note": "[US20250368667, Compound 159]", "values": [
      {"measurement": "IC50", "result": 16.6, "unit": "nM"}
    ]},
    {"smiles": "[2H]C([2H])([2H])Oc1ncnc(C2CC2)c1-c1ncc2c3cn(C)nc3n(Cc3ccc(-c4nc(C(F)(F)F)cn4C(C)C)cc3)c2n1", "note": "[US20250368667, Compound 162]", "values": [
      {"measurement": "IC50", "result": 5.49, "unit": "nM"}
    ]}
  ]
}
